The source of these data is US20230331674A1 (priority 2020, published 2023).

Data set [1] addresses mAChE (murine acetylcholinesterase) (Mus musculus (Mouse), UniProt P21836). In kind it is biochemical. The conditions noted are these: screening at 10 μM; n.i. = no inhibiton. The text has this:
To determine the blank value (b), phosphate-buffered solution replaced the enzyme solution.

A short description of the next data set: Plasma stability. The conditions noted are these: human, 37° C., 2 h incubation, read-out: In vitro half-life in human plasma. In kind it is in vitro ADME. Here is the method: Propoxycaine and propantheline were tested as reference compounds simultaneously in each assay. The incubation was performed in a 37° C. water bath for 2 h. An aliquot of the incubation mixture was transferred to acetonitrile at 0, 0.5, 1, 1.5 and 2 h, respectively. Samples were then mixed and centrifuged. Supernatants were used for HPLC-MS/MS analysis using selected reaction monitoring, and peak areas were recorded for each analyte. The HPLC conditions consisted of a binary LC pump with autosampler, a C18 column (2×20 mm), and gradient elution. The area of precursor compound remaining after each time points relative to the amount remaining at time zero, expressed as percent, is calculated. Subsequently, the half-life (t1/2) was estimated from the slope of the initial linear range of the logarithmic curve of the compound remaining (%) versus time, assuming first order kinetics.

The next data set can be described thus: in vitro. As to conditions: human, Caco-2. Here is the method:
(§1) They were grown on Transwell® culture inserts with a polycarbonate membrane (diameter, 12 mm; pore size, 0.4 μm). 50,000 cells/filter membranes were used for seeding and the medium was changed every two days. At day 18, transepithelial electrical resistance (TEER) was measured for each filter with Caco-2 cell monolayers. […] The samples were acidified by dilution with the same volume of 0.01 M HCl before fluorescence measurements.
(§2) Ringer buffer with 10 mM d-glucose or 10 mM mannitol on apical and basolateral side of the tissue, respectively, was used as an incubation saline. […] The experiment started by the addition of stock solutions of (±)-N-((1-benzylpiperidin-3-yl)methyl)-N-(2-methoxyethyl)naphthalene-2-sulfonamide hydrochloride and fluorescein in the donor compartment to provide final 100 μM donor concentration of (±)-N-((1-benzylpiperidin-3-yl)methyl)-N-(2-methoxyethyl)naphthalene-2-sulfonamide and 20 μM fluorescein. The stock solutions were added either to the apical or to the basolateral compartment to obtain bidirectional permeability measurements. Six samples were withdrawn in 20 min intervals. Each time 300 μl was taken from the 1500 μL basolateral acceptor compartment and 100 μL from the 500 μL apical acceptor compartment. These volumes were immediately replaced by the appropriate fresh incubation saline. The concentrations of (±)-N-((1-benzylpiperidin-3-yl)methyl)-N-(2-methoxyethyl)naphthalene-2-sulfonamide in the samples were determined by HPLC-UV immediately after the experiment.

For another data set, the system named is Caco-2 cell monolayers. The data set is described as follows: in vitro. As for the experimental part: as §1, §2
In the next data set the test system is HepG2 cells. The data set is described as follows: Metabolic activity assay (cytotoxicity) in HepG2 cells. The conditions noted are these: 24 h. Here is the method:
HepG2 cells (1×10^4 cells/well) were treated for 24 h with the appropriate concentrations of the compounds of interest or the corresponding vehicle (control cells), in triplicates in 96-well plates. The metabolic activities were determined using the CellTiter 96 Aqueous One Solution Cell Proliferation Assay (Promega, WI/USA), according to the manufacturer instructions.

The test system of data set [2] is SH-SY5Y cells treated with Aβ(1-42). The data set is described as follows: Neuroprotective effect against Aβ(1-42) cytotoxicity, propidium iodide flow cytometry. In kind it is cell-based, human. As to conditions: 5 μM Aβ(1-42), 48 h. Here is the method:
SH—SY5Y cells were seeded into a 24-well culture plate (1.2×10^5/well) and next day, treated as described above. After 48 h treatment, cells were washed with pre-warmed PBS and further stained with PI solution (30 μM) for 15 min at 37° C. Cells were then analyzed for cytotoxicity by flow cytometry on FACS Calibur (BD Bioscience, San Jose, CA, USA). The percentage of PI positive cells (PI^pos) was evaluated using FlowJo software (Ashland, OR, USA) and results are presented as a relative fold increase of PI^pos corresponding vehicle treatment (DMSO control).
A general note: In flow cytometry, cells or beads pass a laser one at a time.

A further data set relates to SH-SY5Y cells. Briefly: Cell viability assay (MTS) in SH-SY5Y cells. As to conditions: 48 h.
The subject of data set [3] is cryopreserved human hepatocytes. Briefly: Metabolite identification in cryopreserved hepatocytes. In kind it is in vitro ADME. As to conditions: 120 min, HPLC-MS. As for the experimental part:
Principal Phase I (oxidative) and Phase II (conjugative) metabolites have been detected and characterized following previously described procedure (Obach R. S. et al. J. Pharmacol. Exp. Ther. 1997, 283, 46-58). Briefly, the test compound 2 ([…]) was incubated at 37° C. in cryopreserved human hepatocytes (0.7 million cells/mL) for 120 min. Samples were taken at time 0 and the end of the incubation (2 h), respectively. A control sample (no test compound added) was also prepared and incubated for the same period of time. After the reaction was stopped by addition of acetonitrile, the supernatants were subjected to HPLC-MS analysis. Separation of analytes was achieved using Acquity HSS T3 column (100×2.1 mm, 1.8 μm, Waters). The sample solutions-supernatants (5 μL) were injected and eluted at a flow rate of 0.5 mL min-1, using a linear gradient of mobile phase A (0.1% formic acid in water) and mobile phase B (0.1% formic acid in MeCN). The gradient for mobile phase B was: 0-1.0 min, 5%; 1.0-7.0 min, 5%-80%; 7.0-7.5 min, 80%; 7.5-8.0 min, 80%-5%; 8.0-10.0 min, 5%. […] Retention times and the respective MS and MS/MS spectra of the species detected in the incubated sample and not in time-zero or blank sample were identified and recorded.

Each structure is given as a SMILES string.

Sequence of mAChE (murine acetylcholinesterase) (P21836 32-614): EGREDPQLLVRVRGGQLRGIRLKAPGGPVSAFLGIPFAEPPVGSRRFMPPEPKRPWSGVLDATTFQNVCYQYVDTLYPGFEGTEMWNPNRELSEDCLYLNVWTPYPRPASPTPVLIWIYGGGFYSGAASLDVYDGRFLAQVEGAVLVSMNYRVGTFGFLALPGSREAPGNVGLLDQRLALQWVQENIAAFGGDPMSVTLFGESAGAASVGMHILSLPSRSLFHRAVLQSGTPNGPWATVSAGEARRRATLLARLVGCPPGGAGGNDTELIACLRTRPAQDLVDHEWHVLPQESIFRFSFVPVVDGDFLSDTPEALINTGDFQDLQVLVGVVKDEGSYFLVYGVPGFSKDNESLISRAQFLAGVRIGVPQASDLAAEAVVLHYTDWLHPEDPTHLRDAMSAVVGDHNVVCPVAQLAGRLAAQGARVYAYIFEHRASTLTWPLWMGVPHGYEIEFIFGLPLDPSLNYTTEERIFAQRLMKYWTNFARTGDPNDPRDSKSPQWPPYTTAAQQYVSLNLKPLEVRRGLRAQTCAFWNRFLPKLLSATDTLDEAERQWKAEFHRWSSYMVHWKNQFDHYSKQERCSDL

As for `COCCN(CC1CCCN(Cc2ccccc2)C1)S(=O)(=O)c1ccc2ccccc2c1` (racemic) [(±)-N-((1-benzylpiperidin-3-yl)methyl)-N-(2-methoxyethyl)naphthalene-2-sulfonamide], the “IC50 + STD (μM) or % inhibition at 10 μM mAChE” value in data set [1] is on record as “n.i”. Moreover, the half-life at 1 μM in “Plasma stability” is more than 2 h. For the same molecule, in the data set “in vitro”, the Papp A→B at 120 min, 100 μM is 30 ± 10.7 ×10⁻⁶ cm/s and the Papp B→A at 120 min, 100 μM worked out at 29.1 ± 2.9 ×10⁻⁶ cm/s. The “Permeability class according to the biopharmaceutical classification system” value in the data set with Caco-2 cell monolayers is given as “high”. Also, the LD50 with HepG2 cells was found to be 58.67 µM. Besides, the “Neuroprotective effect against Aβ(1-42) toxicity” value in data set [2] (compound 1-10 μM) is reported as “clear dose-response neuroprotective effect”. Moreover, the “Effect on Aβ(1-42)-induced cell death” value in data set [2] (compound at 10 μM) was “reversed Aβ(1-42)-induced cell death”. The same molecule gave an LD50 with SH-SY5Y cells of 31.40 µM. Further, the Possible metabolites result in data set [3] is “N-debenzylated, demethylated, and a demethylated+glucoronide products”.

Broadly, the half-life is the time needed for the level to fall by half in the phase considered. Broadly, the Papp A→B is how fast a substance crosses the layer from the apical side. Low values mean poor permeation, high ones ready permeation. Broadly, the Papp B→A is the apparent permeability from the basolateral to the apical side of a cell layer.
